Results on one compound are retold here after ChEMBL document CHEMBL4665688, “Discovery of AB680: A Potent and Selective Inhibitor of CD73” (J Med Chem, 2020).

Series [1] deals with T1, Cytochrome P450 1A2 (Homo sapiens, UniProt P05177).
T1 sequence (P05177 whole entry): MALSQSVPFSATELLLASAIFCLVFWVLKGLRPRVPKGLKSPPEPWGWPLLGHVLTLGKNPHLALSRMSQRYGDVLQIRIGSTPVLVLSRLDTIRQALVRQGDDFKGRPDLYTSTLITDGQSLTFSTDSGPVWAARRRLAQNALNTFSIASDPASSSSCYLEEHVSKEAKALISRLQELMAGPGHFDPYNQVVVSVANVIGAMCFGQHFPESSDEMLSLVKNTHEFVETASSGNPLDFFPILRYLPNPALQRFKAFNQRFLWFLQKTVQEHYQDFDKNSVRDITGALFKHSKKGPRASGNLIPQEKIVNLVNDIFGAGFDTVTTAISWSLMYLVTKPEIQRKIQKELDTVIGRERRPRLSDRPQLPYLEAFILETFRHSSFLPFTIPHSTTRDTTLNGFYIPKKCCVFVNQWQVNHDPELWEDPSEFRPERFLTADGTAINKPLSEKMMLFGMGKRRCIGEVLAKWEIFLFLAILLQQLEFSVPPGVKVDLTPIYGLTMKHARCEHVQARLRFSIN
Description: Inhibition of CYP1A2 in human liver microsomes using phenacetin as substrate incubated for 5 to 20 mins in presence of NADPH by LC-MS/MS analysis. Format: ADME. Particulars: time 5-20 min; read-out: INH; call rule not given here. Background: Microsomes from liver hold many membrane-bound enzymes, among them those of drug oxidation.

The target in series [2] is T2, Cytochrome P450 2C19 (Homo sapiens, UniProt P33261). Description: Inhibition of CYP2C19 in human liver microsomes using s-mephenytoin as substrate incubated for 5 to 20 mins in presence of NADPH by LC-MS/MS analysis. Format: ADME. As to conditions: time 5-20 min; read-out: INH.
T2 sequence (P33261 whole entry): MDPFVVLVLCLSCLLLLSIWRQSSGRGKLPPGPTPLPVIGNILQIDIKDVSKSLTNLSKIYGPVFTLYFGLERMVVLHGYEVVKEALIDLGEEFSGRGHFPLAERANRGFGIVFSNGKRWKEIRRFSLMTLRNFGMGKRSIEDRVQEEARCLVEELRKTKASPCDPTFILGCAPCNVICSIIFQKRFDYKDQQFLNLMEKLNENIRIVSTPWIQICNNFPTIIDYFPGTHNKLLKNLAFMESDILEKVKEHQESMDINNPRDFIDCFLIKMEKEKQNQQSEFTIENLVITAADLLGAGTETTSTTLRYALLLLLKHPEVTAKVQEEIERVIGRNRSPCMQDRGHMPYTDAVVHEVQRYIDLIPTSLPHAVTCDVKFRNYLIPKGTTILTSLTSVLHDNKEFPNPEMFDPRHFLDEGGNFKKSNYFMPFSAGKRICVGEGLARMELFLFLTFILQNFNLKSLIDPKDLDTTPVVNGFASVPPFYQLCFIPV
Series [3] addresses T3, Cytochrome P450 2D6 (Homo sapiens, UniProt P10635). Description: Inhibition of CYP2D6 in human liver microsomes using dextromethorphan as substrate incubated for 5 to 20 mins in presence of NADPH by LC-MS/MS analysis. Format: ADME. Particulars: time 5-20 min.
Series [4] deals with T4, Cytochrome P450 3A4 (Homo sapiens, UniProt P08684). Description: Inhibition of CYP3A4 in human liver microsomes using midazolam as substrate incubated for 5 to 20 mins in presence of NADPH by LC-MS/MS analysis. Format: ADME. As to conditions: time 5-20 min.
T4 sequence (P08684 whole entry): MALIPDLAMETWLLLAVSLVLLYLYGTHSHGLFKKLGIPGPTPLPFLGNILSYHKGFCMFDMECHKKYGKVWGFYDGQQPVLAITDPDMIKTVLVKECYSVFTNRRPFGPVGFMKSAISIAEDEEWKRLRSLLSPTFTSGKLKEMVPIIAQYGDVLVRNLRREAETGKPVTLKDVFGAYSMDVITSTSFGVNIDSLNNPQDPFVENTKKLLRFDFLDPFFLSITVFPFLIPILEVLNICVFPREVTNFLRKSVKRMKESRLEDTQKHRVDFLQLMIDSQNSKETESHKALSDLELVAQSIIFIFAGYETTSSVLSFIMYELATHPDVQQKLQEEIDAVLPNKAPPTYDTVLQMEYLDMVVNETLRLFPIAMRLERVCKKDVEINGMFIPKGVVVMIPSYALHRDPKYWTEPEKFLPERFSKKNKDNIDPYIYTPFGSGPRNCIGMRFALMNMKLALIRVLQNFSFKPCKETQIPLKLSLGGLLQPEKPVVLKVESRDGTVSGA
For series [5], the target named is T1, Cytochrome P450 1A2. Description: Time dependent inhibition of CYP1A2 in human liver microsomes using phenacetin as substrate in presence of NADPH by LC-MS/MS analysis. The format is ADME.
For series [6], the target named is T2, Cytochrome P450 2C19. Description: Time dependent inhibition of CYP2C19 in human liver microsomes using s-mephenytoin as substrate in presence of NADPH by LC-MS/MS analysis. Format: ADME.
In series [7] the target is T3, Cytochrome P450 2D6. Description: Time dependent inhibition of CYP2D6 in human liver microsomes using dextromethorphan as substrate in presence of NADPH by LC-MS/MS analysis. The format is ADME.
Series [8] has as its target T4, Cytochrome P450 3A4. Description: Time dependent inhibition of CYP3A4 in human liver microsomes using midazolam as substrate in presence of NADPH by LC-MS/MS analysis. The format is ADME.
The target of series [9] is Voltage-gated inwardly rectifying potassium channel KCNH2 (Homo sapiens, UniProt Q12809). Description: Inhibition of human ERG.
Chain of Voltage-gated inwardly rectifying potassium channel KCNH2 (Q12809 whole entry): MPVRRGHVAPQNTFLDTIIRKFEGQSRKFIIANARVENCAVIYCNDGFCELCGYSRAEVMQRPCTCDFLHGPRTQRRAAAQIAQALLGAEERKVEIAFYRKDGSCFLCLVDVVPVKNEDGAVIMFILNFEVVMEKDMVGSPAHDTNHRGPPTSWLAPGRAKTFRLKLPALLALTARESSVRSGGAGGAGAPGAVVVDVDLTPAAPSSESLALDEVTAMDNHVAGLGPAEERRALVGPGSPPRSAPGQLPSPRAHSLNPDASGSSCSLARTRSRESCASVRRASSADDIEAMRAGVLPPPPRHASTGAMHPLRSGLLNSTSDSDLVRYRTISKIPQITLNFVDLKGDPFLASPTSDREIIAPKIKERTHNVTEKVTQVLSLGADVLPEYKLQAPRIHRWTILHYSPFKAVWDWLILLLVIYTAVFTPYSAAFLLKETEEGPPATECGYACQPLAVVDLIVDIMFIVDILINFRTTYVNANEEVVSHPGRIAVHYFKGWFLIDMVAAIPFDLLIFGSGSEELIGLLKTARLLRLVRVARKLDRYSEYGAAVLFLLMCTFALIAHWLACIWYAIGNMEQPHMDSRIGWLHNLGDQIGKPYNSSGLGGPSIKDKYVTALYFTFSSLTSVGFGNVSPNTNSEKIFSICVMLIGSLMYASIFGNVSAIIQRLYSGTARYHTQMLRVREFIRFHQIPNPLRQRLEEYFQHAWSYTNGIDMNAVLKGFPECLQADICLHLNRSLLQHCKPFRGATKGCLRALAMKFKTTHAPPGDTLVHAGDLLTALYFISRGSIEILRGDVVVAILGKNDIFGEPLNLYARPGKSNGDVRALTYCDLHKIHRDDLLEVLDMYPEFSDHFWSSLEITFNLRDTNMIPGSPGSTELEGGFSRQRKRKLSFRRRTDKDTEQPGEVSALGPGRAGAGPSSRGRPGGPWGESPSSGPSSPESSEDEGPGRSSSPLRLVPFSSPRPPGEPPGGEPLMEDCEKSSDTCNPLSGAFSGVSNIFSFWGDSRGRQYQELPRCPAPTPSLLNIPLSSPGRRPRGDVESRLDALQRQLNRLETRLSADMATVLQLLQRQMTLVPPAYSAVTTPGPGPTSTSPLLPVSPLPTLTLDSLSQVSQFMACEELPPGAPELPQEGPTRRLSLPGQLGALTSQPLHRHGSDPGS
The nature of series [10]: Genotoxicity in Salmonella typhimurium by Ames test. The format is toxicity. As to conditions: salmonella enterica subsp. enterica serovar typhimurium. A general note: The Ames test uses bacterial strains that need an amino acid and regain growth without it when mutated back.
Series [11] is described as follows: Cmax in human at 16 mg, iv administered as single infusion for 30 to 60 mins. Format: ADME, organism-based. More on the design: route intravenous, dose 16 mg, time 30-60. As to conditions: in vivo.
The nature of series [12]: Clearance in human at 16 mg, iv administered as single infusion for 30 to 60 mins. The format is ADME, organism-based. As to conditions: in vivo, time 30-60 min.
Series [13] can be described thus: Volume of distribution at steady state in human at 16 mg, iv administered as single infusion for 30 to 60 mins. Particulars: in vivo, time 30-60 min, read-out: Vdss. Format: ADME, organism-based.
Series [14] can be described thus: Clearance in human at 25 mg, iv administered as single infusion for 30 to 60 mins. The format is ADME, organism-based. Particulars: in vivo, time 30-60 min.
The nature of series [15]: Volume of distribution at steady state in human at 25 mg, iv administered as single infusion for 30 to 60 mins. Format: ADME, organism-based. As to conditions: in vivo, time 30-60 min, read-out: Vdss.
Series [16] in a line: Half life in human at 25 mg, iv administered as single infusion for 30 to 60 mins. Format: ADME, organism-based. Particulars: in vivo, time 30-60 min.

A value given as a limit tells only on which side of the number the result lay.

T3 sequence (P10635 whole entry): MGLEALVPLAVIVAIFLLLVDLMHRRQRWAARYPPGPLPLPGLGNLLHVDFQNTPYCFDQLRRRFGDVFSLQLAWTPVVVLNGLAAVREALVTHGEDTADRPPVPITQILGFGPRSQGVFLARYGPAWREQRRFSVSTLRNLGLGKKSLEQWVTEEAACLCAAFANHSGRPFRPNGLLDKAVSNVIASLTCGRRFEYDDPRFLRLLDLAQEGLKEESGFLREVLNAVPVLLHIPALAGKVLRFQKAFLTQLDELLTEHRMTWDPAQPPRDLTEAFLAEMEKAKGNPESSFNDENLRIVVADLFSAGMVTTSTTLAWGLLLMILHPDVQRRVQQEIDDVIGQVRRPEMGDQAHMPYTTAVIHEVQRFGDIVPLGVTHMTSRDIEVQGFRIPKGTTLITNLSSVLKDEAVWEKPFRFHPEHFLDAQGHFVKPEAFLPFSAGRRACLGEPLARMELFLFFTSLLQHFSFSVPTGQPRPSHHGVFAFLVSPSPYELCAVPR

As for `C[C@H](Nc1cc(Cl)nc2c1cnn2[C@@H]1O[C@H](COP(=O)(O)CP(=O)(O)O)[C@@H](O)[C@H]1O)c1ccccc1F`, the IC50 at Cytochrome P450 1A2 [1] was above 100 µM; on Cytochrome P450 2C19 [2] it was above 100 µM; in series [9], above 10 µM. Further, the INH at Cytochrome P450 2D6 [3] and at Cytochrome P450 3A4 [4] was above 100 µM in each case. Further, the TDI entry at Cytochrome P450 1A2 [5], on Cytochrome P450 2C19 [6], at Cytochrome P450 2D6 [7] and at Cytochrome P450 3A4 [8] was “Not Active” in each case. Moreover, the Activity result in [10] is on record as “Non-Toxic”. Also, in series [11], the maximum concentration (Cmax) amounted to 3910 ng/mL. Further, the clearance in series [12] was 1.12 mL/min; in series [14], 1.14 mL/min. The Vd was found to be 6.38 L in series [13] and 6.98 L in series [15]. Besides, the half-life in series [16] is 3.09 days.

Usually Cmax stands for the highest concentration seen after dosing. In general, clearance refers to a measure of how efficiently the substance is removed, as volume per time. Low values mean inefficient removal, high ones efficient removal. One may read the half-life as how long it takes for the measured level to halve. A lower half-life goes with fast loss.
